Source: article PMC11062922 (Nature Chemical Biology, 2023)
pIC50: −log10 of the molar value. Read-outs that look alike come from different tables or passages of the source.

What was measured:
CK2alpha2 (CSNK2A2) = target: T1, CK2alpha2 (CSNK2A2) (Homo sapiens, UniProt P19784); experiment: Recombinant kinase activity assay (ProQinase, FlashPlate radiometric): CK2alpha2; format: biochemical
T1 construct: purchased ProQinase
Procedure: (§1) Kinase activity assays were performed by ProQinase. Dose-dependent activity inhibition of CDK1/cyclinB, CK2alpha1 and CK2alpha2 were measured using a FlashPlateTM-based radiometric assay at KM (ATP) of the respective kinase.

CSNK2A2 = CSNK2A2 (Homo sapiens, UniProt P19784); experiment: Kinobeads two-dose competition binding: CSNK2A2; parameters: to maximize the representation of endogenous proteins; endogenous in cells; settings: Kinobeads two-dose screen (binding); read-out: Kdapp CSNK2A2
Text: Briefly, Kinobeads comprise seven broad-spectrum small molecule kinase inhibitors immobilized on Sepharose beads. […]. Compounds of interest are set to compete for target protein binding with Kinobeads in the lysate and the amount of a given protein bound to Kinobeads in the presence of a compound can be quantified relative to a dimethylsulfoxide (DMSO) vehicle control by label-free mass spectrometry. This assay measures the physical interaction of a compound with thousands of endogenous proteins in parallel and, when systematically increasing the concentration of competitor, enables the calculation of an apparent interaction constant ( Kdapp ) for each compound and protein.
Kinobeads pulldown experiments were performed as described previously[13],[14],[17] with minor modification. […] The protein concentration was adjusted to 5 mg ml^−1. Kinase inhibitors were spiked into 0.5 ml of cell lysate at final concentrations of 100 and 1,000 nM (or DMSO, 0.3, 1, 3, 10, 30, 100, 300 and 1,000 nM for full dose experiments). […] Lysates were incubated for 45 min at 4 °C. Subsequently, lysates were incubated with Kinobeads ε (17.5 µl of settled beads) for 30 min at 4 °C. To assess the degree of protein depletion from the lysates by Kinobeads, the flow through of the DMSO control was recovered for a pulldown of pulldown experiment where the lysate was incubated a second time with fresh Kinobeads. Beads were washed in three steps with buffer containing 0.4%, 0.2% and no IGEPAL. Bound proteins were reduced with 50 mM DTT in 8 M Urea, 40 mM Tris-HCl pH 7.4 for 30 min at room temperature. After alkylation with 55 mM chloroacetamide, the urea concentration was reduced to 1–2 M and proteins were digested with trypsin. Acidified peptides were desalted and concentrated using SepPak tC18 µEluation plates (Waters). Samples were frozen, dried by vacuum centrifugation and stored at −20 °C.
Each kinase inhibitor was processed together with all DMSO controls of the same plate. Additionally, each search was supplemented with five high quality DMSO controls for consistent peptide identification and protein grouping. The resultant file (proteinGroups.txt) was used for subsequent filtering, normalization, data visualization and target annotation that was automatically performed by a data processing pipeline built in house that used R (including the ‘drc’ and ‘heatmap’ packages). First, reverse hits, potential contaminants and not quantified proteins in the DMSO control samples were discarded. Protein raw and label-free quantification intensities were normalized to the median DMSO control intensity to obtain relative residual binding intensities for each protein group at every inhibitor concentration and standard deviations of the DMSO control intensity were calculated. IC50 values were estimated based on the following equation IC50=I×100−inhibition/inhibition where [I] is the inhibitor concentration that was used for IC50 calculation and ‘inhibition’ the relative residual binding intensity. […]. Estimated Kdapp values were then calculated by multiplying the estimated IC50 values with a protein-dependent correction factor that was limited to a maximum value of one. The correction factor accounts for the depletion of a target protein from the lysate by Kinobeads. The depletion can be measured by the ratio of the amount of protein captured in two consecutive pulldowns of the same DMSO control lysate. In this study, correction factors were determined in separate experiments using the same lysate mixture and the same bead batch. Correction factors were set to the median of all correction factors. Targets of kinase inhibitors were annotated using the previously published random forest classifier. A training data set was annotated manually. […]

CSNK2A1 (CK2) = target: T2, CSNK2A1 (CK2) (Homo sapiens, UniProt P68400); experiment: Kinobeads two-dose competition binding: CK2 (CSNK2A1)
T2 construct: endogenous in cells

CDK1/cyclinB = target: T3, CDK1/cyclinB (Homo sapiens, UniProt P06493); experiment: Recombinant kinase activity assay (ProQinase, FlashPlate radiometric): CDK1/cyclinB; format: biochemical; settings: Enzyme CDK1_CycB1; Highest Assay Concentration 1.00E-06 M
T3 construct: purchased ProQinase
Procedure: as §1

CK2alpha1 (CSNK2A1) = target: T4, CK2alpha1 (CSNK2A1) (Homo sapiens, UniProt P68400); experiment: Recombinant kinase activity assay (ProQinase, FlashPlate radiometric): CK2alpha1; format: biochemical; settings: Enzyme CK2alpha1; Highest Assay Concentration 1.00E-06 M; read-out: IC50
T4 construct: purchased ProQinase
Procedure: as §1

pIC50 (CK2alpha2 (CSNK2A2); Enzyme CK2alpha2, Highest Assay Concentration 1.00E-06 M, read-out: IC50): 7.19
pIC50 (CK2alpha2 (CSNK2A2); recombinant kinase activity assay at KM (ATP), read-out: Activity IC50 CSNK2A2): 7.19
potency estimated from few doses (CSNK2A2): 57 nM
potency estimated from few doses (CSNK2A1 (CK2); Kinobeads two-dose screen (binding), read-out: Kdapp CK2 (CSNK2A1)): 58 nM
CATDSCK2 (CSNK2A1 (CK2); selectivity score from Kinobeads two-dose data): 0.86
pIC50 (CDK1/cyclinB): < 6.00
pIC50 (CK2alpha1 (CSNK2A1)): 6.94
Compound: CONC1=NC(=O)/C(=C/c2ccc3ncccc3c2)S1 [RO4613269-000]
